# Results reported in patent publication US20040146519A1, “Inducing cellular immune responses to carcinoembryonic antigen using peptide and nucleic acid compositions” (priority 2002, published 2004).
# Where two headings read alike, the source gives them in different places. Where no end group is shown, it is not given here.
# Columns and labels:
# [1] = biological target: HLA-A*3101 (Homo sapiens, UniProt P04439, A270S/D185E/E176V/E277Q/F33T/G231S/G80R/H175R/I121M/I218V/I322F/K168Q/L300P/L318F/M331R/P217A/Q94H/R138Q/T323A/T345S/T97I/V358M); test: HLA class I binding assay, purified HLA-A*3101; conditions: Table XXIII, binding affinity
# [2] = biological target: HLA-A*3301 (Homo sapiens, UniProt P04439, A270S/D185E/E176V/E277Q/E87N/F33T/G231S/H175R/I121M/I218V/I322F/K168Q/K210R/L300P/L318F/M331R/P217A/Q86R/Q94H/R138Q/T323A/T345S/T97I/V358M/Y195H); test: HLA class I binding assay, purified HLA-A*3301; conditions: Table XXIII, binding affinity
# [3] = biological target: HLA-A*6801 (Homo sapiens, UniProt P04439, A269V/D185E/E176V/E277Q/E87N/F33Y/G231S/I121M/I166T/I218V/L180W/L300P/L318F/N151K/P208A/P217A/Q86R/R169H/T345S); test: HLA class I binding assay, purified HLA-A*6801; conditions: Table XXIII, binding affinity
# [4] = biological target: HLA-A*0206 (Homo sapiens, UniProt P04439, D140Y/D185E/D98H/E176V/E277Q/F33Y/G131W/G231S/I119V/I121R/I166T/I218V/L300P/L318F/N151K/N90K/P208A/P217A/Q86G/Q94H/R138H/R169H/T345S); test: HLA class I binding assay, purified HLA-A*0206; conditions: Table XXII, binding affinity
# [5] = biological target: HLA-A*0202 (Homo sapiens, UniProt P04439, D140Y/D185E/D98H/E176V/E277Q/G131W/G231S/I119L/I121R/I166T/I218V/L180W/L300P/L318F/N151K/N90K/P208A/P217A/Q67R/Q86G/Q94H/R138H/R169H/T345S); test: HLA class I binding assay, purified HLA-A*0202; conditions: Table XXII, binding affinity
# [6] = biological target: HLA-A*0201 (Homo sapiens, UniProt P04439, D140Y/D185E/D98H/E176V/E277Q/G131W/G231S/I119V/I121R/I166T/I218V/L300P/L318F/N151K/N90K/P208A/P217A/Q86G/Q94H/R138H/R169H/T345S); test: HLA class I binding assay, purified HLA-A*0201; conditions: Table XXII, binding affinity
# [7] = biological target: HLA-A*0203 (Homo sapiens, UniProt P04439, A173T/D140Y/D185E/D98H/E277Q/G131W/G231S/I119V/I121R/I166T/I218V/L180W/L300P/L318F/N151K/N90K/P208A/P217A/Q86G/Q94H/R138H/R169H/T345S); test: HLA class I binding assay, purified HLA-A*0203; conditions: Table XXII, binding affinity
# [8] = biological target: HLA-A*6802 (Homo sapiens, UniProt P04439, A269V/D140Y/D185E/E176V/E277Q/E87N/F33Y/G231S/I121R/I166T/I218V/L180W/L300P/L318F/N151K/P208A/P217A/Q86R/R138H/R169H/S129P/T345S/V36M); test: HLA class I binding assay, purified HLA-A*6802; conditions: Table XXII, binding affinity
# [9] = biological target: HLA-A*1101 (Homo sapiens, UniProt P04439, A114D/D185E/E176A/F33Y/L180Q/S129P/T187R); test: HLA class I binding assay, purified HLA-A*1101; conditions: Table XXIII, binding affinity
# [10] = biological target: HLA-DRB1*0401 (Homo sapiens, UniProt P01903+P01911, A100K/A169T/F76Y/I96L/K127E/L162R/M171V/N62H/P40V/Q125Y/R42H/S133A/S149N/S66Y/V115G/V209L/W38E); test: HLA class II binding assay, DRB1*0401 (DR4w4)
# [11] = HLA Class II motif and supermotif-bearing epitopes
Compound,IC50 [1] [nM],IC50 [2] [nM],IC50 [3] [nM],IC50 [5] [nM],IC50 [8] [nM],also measured
CC(C)C[C@H](NC(=O)[C@H](CC(C)C)NC(=O)[C@@H](NC(=O)[C@H](CC(C)C)NC(=O)[C@@H](NC(=O)[C@@H](N)CCCNC(=N)N)C(C)C)[C@@H](C)O)C(=O)N[C@@H](CO)C(=O)N[C@H](C(=O)N[C@H](C(=O)N[C@@H](CCCCN)C(=O)O)[C@@H](C)O)C(C)C [CEA.376.V2K10],164,> 10000,5710,–,–,–
CC[C@H](C)[C@H](N)C(=O)N[C@H](C(=O)N1CCC[C@H]1C(=O)N[C@@H](CO)C(=O)N[C@@H](Cc1ccc(O)cc1)C(=O)N[C@H](C(=O)N[C@@H](Cc1ccc(O)cc1)C(=O)N[C@@H](Cc1ccc(O)cc1)C(=O)N[C@@H](CCCCN)C(=O)O)[C@@H](C)O)C(C)C [CEA.420.V2K9],720,4330,22,–,–,–
CC[C@H](C)[C@H](NC(=O)CN)C(=O)N[C@@H](CCSC)C(=O)N[C@H](C(=O)NCC(=O)N[C@H](C(=O)N[C@@H](CC(C)C)C(=O)N[C@H](C(=O)NCC(=O)N[C@H](C(=O)O)C(C)C)C(C)C)C(C)C)[C@@H](C)CC [CEA.690],–,–,–,205,500,IC50 [4]: 142 nM; IC50 [6]: 64 nM; IC50 [7]: 31 nM
CC[C@H](C)[C@H](NC(=O)CNC(=O)[C@@H](NC(=O)[C@H](CC(C)C)NC(=O)[C@H](C)N)C(C)C)C(=O)N[C@@H](CCSC)C(=O)N[C@H](C(=O)NCC(=O)N[C@H](C(=O)O)C(C)C)[C@@H](C)CC [CEA.687L2],–,–,–,63,102,IC50 [4]: 100 nM; IC50 [6]: 10 nM; IC50 [7]: 31 nM
CC[C@H](C)[C@H](NC(=O)CNC(=O)[C@H](CS)NC(=O)[C@H](CC(C)C)NC(=O)[C@@H](N)Cc1ccc(O)cc1)C(=O)N[C@@H](CCC(N)=O)C(=O)N[C@@H](CC(N)=O)C(=O)N[C@@H](CO)C(=O)N[C@H](C(=O)O)C(C)C [CEA.569L2],–,–,–,24,3480,IC50 [4]: 31 nM
CC[C@H](C)[C@H](N)C(=O)N[C@@H](CC(C)C)C(=O)N[C@H](C(=O)NCC(=O)N[C@H](C(=O)N[C@@H](CC(C)C)C(=O)N[C@H](C(=O)NCC(=O)N[C@H](C(=O)O)C(C)C)C(C)C)C(C)C)[C@@H](C)CC [CEA.691L2],–,–,–,8,160,IC50 [6]: 22 nM; IC50 [7]: 3.2 nM
CC(C)C[C@H](NC(=O)[C@@H](NC(=O)[C@@H](N)CCCNC(=N)N)C(C)C)C(=O)N[C@H](C(=O)N[C@@H](CC(C)C)C(=O)N[C@@H](Cc1ccccc1)C(=O)N[C@@H](CC(N)=O)C(=O)N[C@H](C(=O)N[C@H](C(=O)N[C@@H](CCCCN)C(=O)O)[C@@H](C)O)C(C)C)[C@@H](C)O [CEA.554.V42K10],234,> 10000,2350,–,–,IC50 [9]: 32 nM
CC(C)C[C@H](NC(=O)[C@H](CC(C)C)NC(=O)[C@@H](NC(=O)[C@H](CC(C)C)NC(=O)[C@@H](NC(=O)[C@H](CCCNC(=N)N)NC(=O)[C@H](CC(N)=O)NC(=O)[C@H](CC(=O)O)NC(=O)[C@H](CC(N)=O)NC(=O)[C@H](CO)NC(=O)[C@H](CC(C)C)NC(=O)[C@H](CCC(N)=O)NC(=O)[C@H](CC(C)C)NC(=O)[C@@H](N)CCCNC(=N)N)[C@@H](C)O)[C@@H](C)O)C(=O)N[C@@H](CO)C(=O)O [CEA.368],–,–,–,–,–,"IC50 [10, 11]: > 8180 nM"
CC[C@H](C)[C@H](NC(=O)[C@H](CC(N)=O)NC(=O)[C@@H](N)CCC(N)=O)C(=O)N[C@H](C(=O)N[C@@H](CCC(N)=O)C(=O)N[C@@H](CC(N)=O)C(=O)N[C@@H](CC(=O)O)C(=O)N[C@H](C(=O)NCC(=O)N[C@@H](Cc1ccccc1)C(=O)N[C@@H](Cc1ccc(O)cc1)C(=O)N[C@H](C(=O)N[C@@H](CC(C)C)C(=O)N[C@@H](Cc1c[nH]cn1)C(=O)N[C@H](C(=O)O)C(C)C)[C@@H](C)O)[C@@H](C)O)[C@@H](C)CC [CEA.110],–,–,–,–,–,"IC50 [10, 11]: > 8180 nM"
CC(C)[C@H](NC(=O)[C@@H](N)[C@@H](C)O)C(=O)N[C@@H](CO)C(=O)N1CCC[C@H]1C(=O)N[C@@H](CO)C(=O)N[C@@H](Cc1ccc(O)cc1)C(=O)N[C@H](C(=O)N[C@@H](Cc1ccc(O)cc1)C(=O)N[C@@H](Cc1ccc(O)cc1)C(=O)N[C@@H](CCCCN)C(=O)O)[C@@H](C)O [CEA.419.V2K10],3670,> 10000,6.7,–,–,IC50 [9]: 43 nM
CC[C@H](C)[C@H](NC(=O)[C@H](CC(C)C)NC(=O)[C@@H](N)CCC(N)=O)C(=O)NCC(=O)N[C@@H](Cc1ccc(O)cc1)C(=O)N[C@H](C(=O)N[C@H](C(=O)NCC(=O)N[C@H](C(=O)O)C(C)C)[C@@H](C)CC)C(C)C [CEA.78L2V9],–,–,–,5.9,2.3,IC50 [7]: 2.3 nM
CC(C)C[C@H](NC(=O)[C@H](CC(N)=O)NC(=O)[C@H](CO)NC(=O)[C@@H](NC(=O)[C@@H](N)Cc1ccccc1)C(C)C)C(=O)N[C@@H](C)C(=O)N[C@H](C(=O)NCC(=O)N[C@@H](CCCCN)C(=O)O)[C@@H](C)O [CEA.656.K9],> 10000,> 10000,5.3,–,–,IC50 [9]: 207 nM
CC(C)C[C@H](NC(=O)[C@H](CCCNC(=N)N)NC(=O)[C@@H]1CCCN1C(=O)[C@H](CO)NC(=O)[C@@H](NC(=O)[C@@H]1CCCN1C(=O)[C@H](CC(C)C)NC(=O)[C@H](CO)NC(=O)[C@H](CCC(N)=O)NC(=O)[C@H](CC(N)=O)NC(=O)[C@H](CC(N)=O)NC(=O)[C@@H](NC(=O)[C@H](Cc1c[nH]c2ccccc12)NC(=O)[C@H](Cc1c[nH]c2ccccc12)NC(=O)[C@@H](N)CC(C)C)C(C)C)C(C)C)C(=O)O [CEA.177],–,–,–,–,–,"IC50 ([10]; DR supertype primary binding, read-out: DR4w4 binding affinity): 1550 nM"
TVSPLNTSYK [CEA.241.V2K10],> 10000,> 10000,7.3,–,–,IC50 [9]: 6 nM
